# Assay results from US5140011A, “Amino acid derivatives which have renin inhibiting activity” (Hoffmann-La Roche, Inc., priority 1989, dated 1992).
# pIC50: −log10 of the molar value.
# Molecular target: T1, human renin (Homo sapiens, UniProt P00797)
# T1 sequence (P00797 67-406): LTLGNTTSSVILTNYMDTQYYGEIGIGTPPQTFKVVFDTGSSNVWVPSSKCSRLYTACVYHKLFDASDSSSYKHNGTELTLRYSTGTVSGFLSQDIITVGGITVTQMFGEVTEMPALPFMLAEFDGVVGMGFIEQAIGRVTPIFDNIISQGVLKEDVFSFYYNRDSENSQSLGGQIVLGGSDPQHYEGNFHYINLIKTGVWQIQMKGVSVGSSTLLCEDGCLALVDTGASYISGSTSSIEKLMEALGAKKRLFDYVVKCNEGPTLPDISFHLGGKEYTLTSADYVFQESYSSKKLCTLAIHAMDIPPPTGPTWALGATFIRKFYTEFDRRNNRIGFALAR
# Test: In vitro test with pure human renin
# Assay type: biochemical
# Conditions: human tetradecapeptide renin substrate (hTD), pH 7.4, 3 hours at 37° C. vs 4° C., angiotensin I measured via RIA
# Experimental: In vitro test with pure human renin
# The test is carried out in Eppendorf test tubes. The incubation mixture consists of (1) 100 μl of human renin in buffer A (0.1M sodium phosphate solution, pH 7.4, containing 0.1% bovine serum albumin, 0.1% sodium azide and 1 mM ethylenediaminetetraacetic acid), sufficient for a renin activity of 2-3 ng of angiotensin I/ml/hr.; (2) 145 μl of buffer A; (3) 30 μl of a 10 μM human tetradecapeptide renin substrate (hTD) in 10 mM hydrochloric acid; (4) 15 μl of dimethyl sulphoxide with or without inhibitor and (5) 10 μl of a 0.03 molar solution of hydroxyquinoline sulphate in water.
# The samples are incubated for 3 hours at 37° C. or 4° C. in triplicate. 2×100 μl samples per experimental test tube are used in order to measure the production of angiotensin I via RIA (standard radioimmunoassay; clinical assay solid phase kit). Cross reactivities of the antibody used in the RIA are: angiotensin I 100%; angiotensin II 0.0013%; hTD (angiotensin I-Val-Ile-His-Ser-OH) 0.09%. The production of angiotensin I is determined by the difference between the experiment at 37° C. and that at 4° C.
# The following controls are carried out:
# (a) Incubation of hTD samples without renin and without inhibitor at 37° C. and 4° C. The difference between these two values gives the base value of angiotensin I production.
# (b) Incubation of hTD samples with renin, but without inhibitor at 37° C. and 4° C. The difference between these values give the maximal value of angiotensin I production.
# In each sample the base value of the angiotensin I production is subtracted from the angiotensin I production which is determined. The difference between the maximal value and the base value gives the value of the maximal substrate hydrolysis (=100%) by renin.
# The results are given as IC50 values which denote that concentration of the inhibitor at which the enzymatic activity is inhibited by 50%. The IC50 values are determined from a linear regression curve from a logit-log plot.
row,Structure (SMILES),pIC50
1,"CC(C)[C@@H](CCOC(=O)C(C)(C)C)C[C@H](O)[C@H](CC1CCCCC1)NC(=O)C(Cc1c[nH]cn1)NC(=O)[C@H](Cc1ccccc1)NC(=O)[C@H]1CCCN1C(=O)OC(C)(C)C (mixture of isomers) [F, t-butyl (R)-2-[[(S)-α-[[(R and S)-1-[[(1S,2S,4S)-1-(cyclohexylmethyl]-2-hydroxy-4-isopropyl-6-(pivaloyloxy)hexyl]carbamoyl]-2-imidazol-4-ylethyl]carbamoyl]phenethyl]carbamoyl]-1-pyrrolidinecarboxylate]",8.00
2,"CC(C)C(CC(O)C(CC1CCCCC1)NC(=O)C(Cc1c[nH]cn1)NC(=O)C(Cc1ccccc1)NC(=O)C1CCCN1C(=O)OC(C)(C)C)C(O)CNCc1ccccn1 (racemic) [I, (2RS,3S,5S,6S)-6-(Boc-D-Pro-Phe-His-NH)-7-cyclohexyl-3-isopropyl-1-[(2-pyridylmethyl)amino]-2,5-heptanediol]",8.10
3,"CC(C)C(CC(O)C(CC1CCCCC1)NC(=O)C(Cc1c[nH]cn1)NC(=O)C(Cc1ccccc1)NC(=O)C1CCCN1C(=O)OC(C)(C)C)C(O)CNCCc1ccccc1 (single isomer, unassigned) [G, (2S or R,3S,5S,6S)-6-(Boc-D-Pro-Phe-His-NH)-7-cyclohexyl-3-isopropyl-1-(phenethylamino)-2,5-heptanediol]",7.96
4,"CC(C)C(CC(O)C(CC1CCCCC1)NC(=O)C(Cc1c[nH]cn1)NC(=O)C(Cc1ccccc1)NC(=O)C1CCCN1C(=O)OC(C)(C)C)C(O)CNCCc1ccccc1 (single isomer, unassigned) [H, (2R or S,3S,5S,6S)-6-(Boc-D-Pro-Phe-His-NH)-7-cyclohexyl-3-isopropyl-1-(phenethylamino)-2,5-heptanediol]",8.40
5,"CCCCNC(=O)C[C@@H](C[C@H](O)[C@H](CC1CCCCC1)NC(=O)[C@H](Cc1c[nH]cn1)NC(=O)[C@@H](CC(=O)C(C)(C)C)Cc1ccccc1)C(C)C [A, (S)-N-[(1S,2S,4R)-4-[(Butylcarbamoyl)methyl]-1-(cyclohexylmethyl)-2-hydroxy-5-methylhexyl]-α-[(R)-α-(3,3-dimethyl-2-oxobutyl)hydrocinnamamido]imidazole-4-propionamide]",8.52
6,"CCCCNC(=O)C[C@@H](C[C@H](O)[C@H](CC1CCCCC1)NC(=O)[C@H](Cc1c[nH]cn1)NC(=O)[C@H](Cc1ccccc1)NC(=O)OC(C)(C)C)C(C)C [B, t-butyl [(S)-α-[[(S)-1-[[(1S,2S,4R)-4-[(butylcarbamoyl)methyl]-1-(cyclohexylmethyl)-2-hydroxy-5-methylhexyl]carbamoyl]-2-imidazol-4-ylethyl]carbamoyl]phenethyl]carbamate]",8.05
7,"CCCCCC(=O)[C@@H](C[C@H](O)[C@H](CC1CCCCC1)NC(=O)[C@H](Cc1c[nH]cn1)NC(=O)[C@@H](CC(=O)C(C)(C)C)Cc1ccccc1)C(C)C [C, (S)-N-[(1S,2S,4S)-1-(cyclohexylmethyl)-2-hydroxy-4-isopropyl-5-oxodecyl]-α-[(R)-α-(3,3-dimethyl-2-oxobutyl]hydrocinnamamido]imidazole-4-propionamide]",8.15
8,"CC(C)[C@@H](/C=C/C(=O)NCc1ccccn1)C[C@H](O)[C@H](CC1CCCCC1)NC(=O)[C@H](Cc1c[nH]cn1)NC(=O)[C@@H](CC(=O)C(C)(C)C)Cc1ccccc1 [D, (S)-N-[(1S,2S,4S,E)-1-(cyclohexylmethyl)-2-hydroxy-4-isopropyl-6-[(2-pyridylmethyl)carbamoyl]-5-hexenyl]-α-[(R)-α-(3,3-dimethyl-2-oxobutyl)hydrocinnamamido]imidazole-4-propionamide]",7.89
9,"CCC(=O)OCC[C@@H](C[C@H](O)[C@H](CC1CCCCC1)NC(=O)[C@H](Cc1c[nH]cn1)NC(=O)[C@H](Cc1ccccc1)NC(=O)OC(C)(C)C)C(C)C [E, t-butyl [(S)-α-[[(S)-1-[[(1S,2S,4S)-1-(cyclohexylmethyl)-2-hydroxy-4-isopropyl-6-(propionyloxy)hexyl]carbamoyl]-2-imidazol-4-ylethyl]carbamoyl]phenethyl]carbamate]",8.05
